Results as given in patent US20230192661A1, “1, 4, 5, 6-TETRAHYDROPYRIMIDINE-2-AMINE DERIVATIVE” (UBE Corporation, priority 2020, published 2023).

Columns and labels:
[1] = tested on: TGF-β activation (phosphorylated SMAD3); experiment: TGF-β activation inhibition test (inhibition of SMAD3 phosphorylation in TFK-1 cells); assay type: cell-based; conditions: 48 h, fibronectin-coated plate, cultured 2 days, read-out: IC50 (rate of inhibition of phosphorylated SMAD3)
Protocol: In Test Example 3, the inhibition of TGF-β activation by a compound was detected with the inhibition of SMAD3 phosphorylation as an index. In Test Example 3, the same reagents as in Test Example 1 were used unless otherwise specified.
Human fibronectin was prepared at 14 μg/mL with PBS and then dispensed at 50 μL/well to a 96-well plate. The plate was left standing at room temperature for 1 hour or longer, followed by the removal of the fibronectin solution. The plate was washed with PBS and used as a coated plate.
A test compound dissolved in DMSO was added to RPMI medium 1640 (manufactured by Thermo Fisher Scientific, Inc., 11875) containing 1% FBS and 1% penicillin/streptomycin/amphotericin B to prepare a medium containing the test compound having a concentration of two times the final concentration. This medium was added at 100 μL/well to the coated plate. TFK-1 cells (Cell Resource Center for Biomedical Research, Institute of Development, Aging and Cancer, Tohoku University) cultured in RPMI medium 1640 containing 10% FBS and 1% penicillin/streptomycin/amphotericin B were suspended in RPMI medium 1640 containing 1% FBS and 1% penicillin/streptomycin/amphotericin B to prepare a cell suspension of 1×10^6 cells/mL. The prepared cell suspension was further added at 100 μL/well and cultured for 2 days in a 5% CO2 incubator (37° C.).
Phosphorylated SMAD3 in the cells thus cultured for 2 days was measured using Phospho-SMAD3 (Ser423/425) cellular kit (manufactured by cisbio, 63ADK025), and a DeltaF value was calculated according to the calculation expression of the kit. Inhibition when 10 μM LY364947 (FUJIFILM Wako Pure Chemical Corp., 123-05981) was added instead of the test compound was defined as 100% inhibition, and inhibition when DMSO was added instead was defined as 0% inhibition. The rate of inhibition of phosphorylated SMAD3 by the test compound was calculated according to the following expression.
Rate of inhibition of phosphorylated SMAD3 (%)=[1−{(DeltaF value in the case of adding the test compound)−(DeltaF value in the case of adding 10 μM LY364947)}/{(DeltaF value in the case of adding DMSO)−(DeltaF value in the case of adding 10 μM LY364947)}]×100
An IC50 value was calculated from the rate of inhibition of phosphorylated SMAD3 by the test compound. A: IC50<10 nM, B: 10 nM≤IC50<50 nM, C: 50 nM≤IC50<100 nM, or D: IC50≥100 nM.

αvβ1 = molecular target: T1, αvβ1 (UniProt G3HZ55+P06756); experiment: αvβ1 cell adhesion inhibition test (αv-transfected CHO cells on human fibronectin); assay type: cell-based; conditions: human fibronectin coating, 1 mM MnCl2, 1 hour, read-out: IC50 (rate of inhibition of cell adhesion, αvβ1)
T1 construct: expressed in transfected cells; host or cells: CHO cells deficient in α5 gene, transfected with αv gene
Protocol: Test Example 1 was performed by partially modifying the method of Reed et al. (Sci Transl Med., 7 (288), 288ra79, 2015).
Human fibronectin (manufactured by Sigma-Aldrich Co. LLC, F0895) was prepared at 1.25 μg/mL with phosphate buffered saline (PBS), dispensed at 100 μL/well to a 96-well plate, and left standing overnight. The plate was washed with Hanks' balanced salt solution (HBSS), then subjected to blocking treatment with Dulbecco's modified Eagle medium (DMEM) containing 1% bovine serum-derived albumin (BSA) (FUJIFILM Wako Pure Chemical Corp., for cell culture, 017-22231), and used as a coated plate in the adhesion test.
αv-transfected cells (CHO cells deficient in α5 gene and transfected with αv gene) cultured in Ham's F-12 medium (FUJIFILM Wako Pure Chemical Corp., 087-08335) containing 10% fetal bovine serum (FBS), 1% penicillin/streptomycin/amphotericin B (manufactured by Thermo Fisher Scientific, Inc., 15240), 1 mM GlutaMAX Supplement (manufactured by Thermo Fisher Scientific, Inc., 35050), and 400 μg/mL hygromycin B (FUJIFILM Wako Pure Chemical Corp., 080-07683) were recovered and suspended in DMEM containing 1 mM MnCl2 (manufactured by Sigma-Aldrich Co. LLC, M1787) to prepare a cell suspension. A test compound dissolved in DMSO was added thereto.
The cell suspension of 1×10^6 cells/mL containing the test compound was added at 100 μL/well to the coated plate and left standing for 1 hour in a 5% CO2 incubator (37° C.). One hour later, the supernatant was removed, and the plate was washed with HBSS. The cells that adhered to each well in the plate were stained with crystal violet, and the cells were lysed, followed by absorbance measurement. Inhibition without substrate coating was defined as 100% inhibition, and inhibition when DMSO was added instead of the test compound was defined as 0% inhibition. The rate of inhibition of cell adhesion by the test compound was calculated according to the following expression.
Rate of inhibition of cell adhesion (%)=[1−{(Absorbance in the case of adding the test compound)−(Absorbance without substrate coating)}/{(Absorbance in the case of adding DMSO)−(Absorbance without substrate coating)}]×100
An IC50 value was calculated from the rate of inhibition of cell adhesion by the test compound. A: IC50<3 nM, B: 3 nM≤IC50<10 nM, C: 10 nM≤IC50<30 nM, D: 30 nM≤IC50<100 nM, or E: IC50≥100 nM.

T1 sequence (P06756 31-889 limits assumed): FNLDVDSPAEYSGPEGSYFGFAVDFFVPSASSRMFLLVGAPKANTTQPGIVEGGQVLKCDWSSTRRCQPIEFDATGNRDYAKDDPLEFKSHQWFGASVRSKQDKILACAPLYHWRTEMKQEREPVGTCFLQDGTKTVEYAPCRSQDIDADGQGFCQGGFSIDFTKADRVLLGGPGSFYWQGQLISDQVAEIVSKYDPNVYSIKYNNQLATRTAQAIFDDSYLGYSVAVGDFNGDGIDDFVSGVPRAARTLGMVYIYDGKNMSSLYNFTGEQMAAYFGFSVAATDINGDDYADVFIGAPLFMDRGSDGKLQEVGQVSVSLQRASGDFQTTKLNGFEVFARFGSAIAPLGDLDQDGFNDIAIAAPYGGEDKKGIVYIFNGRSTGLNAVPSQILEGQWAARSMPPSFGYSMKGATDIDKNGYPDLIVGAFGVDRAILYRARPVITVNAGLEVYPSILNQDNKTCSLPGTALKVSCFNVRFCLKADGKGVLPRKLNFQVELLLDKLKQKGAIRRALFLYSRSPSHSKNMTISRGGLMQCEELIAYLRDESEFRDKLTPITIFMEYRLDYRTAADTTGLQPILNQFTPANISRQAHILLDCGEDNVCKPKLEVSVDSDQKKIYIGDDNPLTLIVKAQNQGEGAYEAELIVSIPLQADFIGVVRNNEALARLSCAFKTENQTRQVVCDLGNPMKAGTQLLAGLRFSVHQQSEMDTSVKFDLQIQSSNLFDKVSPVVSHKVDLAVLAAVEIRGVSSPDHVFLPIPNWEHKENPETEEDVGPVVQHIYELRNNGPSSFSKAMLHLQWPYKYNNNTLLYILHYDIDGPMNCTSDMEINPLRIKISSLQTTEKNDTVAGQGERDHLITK
T1 sequence (P06756 891-1048 limits assumed): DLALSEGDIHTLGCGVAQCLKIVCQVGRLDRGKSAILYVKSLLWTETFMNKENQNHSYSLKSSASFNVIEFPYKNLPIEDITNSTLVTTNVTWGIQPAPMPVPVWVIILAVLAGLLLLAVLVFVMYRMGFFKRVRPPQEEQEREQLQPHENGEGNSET
T1 sequence (G3HZ55 21-798): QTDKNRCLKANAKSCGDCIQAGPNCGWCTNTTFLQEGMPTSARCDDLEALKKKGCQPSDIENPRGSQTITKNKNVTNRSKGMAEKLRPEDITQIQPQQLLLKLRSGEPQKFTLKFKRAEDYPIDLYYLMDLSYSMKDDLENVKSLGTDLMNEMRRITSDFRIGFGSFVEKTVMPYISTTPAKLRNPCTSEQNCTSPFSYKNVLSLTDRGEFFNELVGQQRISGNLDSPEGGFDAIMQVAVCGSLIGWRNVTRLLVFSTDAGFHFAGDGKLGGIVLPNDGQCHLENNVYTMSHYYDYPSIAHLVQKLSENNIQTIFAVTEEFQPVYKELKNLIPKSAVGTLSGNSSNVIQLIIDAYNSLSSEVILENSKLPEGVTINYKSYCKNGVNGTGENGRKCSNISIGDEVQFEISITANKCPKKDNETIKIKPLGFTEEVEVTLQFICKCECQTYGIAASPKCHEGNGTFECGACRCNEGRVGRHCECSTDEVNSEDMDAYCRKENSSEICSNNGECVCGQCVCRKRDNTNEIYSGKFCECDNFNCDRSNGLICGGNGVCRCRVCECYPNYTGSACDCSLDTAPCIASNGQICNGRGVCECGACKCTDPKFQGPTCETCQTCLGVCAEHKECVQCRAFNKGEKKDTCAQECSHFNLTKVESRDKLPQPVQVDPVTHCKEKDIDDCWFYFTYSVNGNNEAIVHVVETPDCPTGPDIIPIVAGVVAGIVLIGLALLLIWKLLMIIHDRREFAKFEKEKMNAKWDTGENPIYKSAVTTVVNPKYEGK

SMILES	IC50 [1]	IC50 (αvβ1)
O=C(O)C[C@H](NC(=O)CNC(=O)c1cc(NC2=NCC(F)CN2)c2cn[nH]c2c1)c1cc(Br)cc(OC(F)(F)F)c1 (stereo partly drawn) [Example 32-(b), (3S)-3-(3-bromo-5-(trifluoromethoxy)phenyl)-3-(2-(4-((5-fluoro-1,4,5,6-tetrahydropyrimidin-2-yl)amino)-1H-indazole-6-carboxamido)acetamido)propanoic acid]	< 10 nM	< 3 nM
O=C(O)C[C@H](NC(=O)CNC(=O)c1cc(NC2=NCC(F)CN2)c2cn[nH]c2c1)c1cc(OC(F)(F)F)ccc1F (stereo partly drawn) [Example 33-(b), (3S)-3-(2-(4-((5-fluoro-1,4,5,6-tetrahydropyrimidin-2-yl)amino)-1H-indazole-6-carboxamido)acetamido)-3-(2-fluoro-5-(trifluoromethoxy)phenyl)propanoic acid]	< 10 nM	< 3 nM
O=C(O)C[C@H](NC(=O)CNC(=O)c1cc(NC2=NCC(F)CN2)c2cn[nH]c2c1)c1ccc(F)c(OC(F)(F)F)c1 (stereo partly drawn) [Example 34-(b), (3S)-3-(2-(4-((5-fluoro-1,4,5,6-tetrahydropyrimidin-2-yl)amino)-1H-indazole-6-carboxamido)acetamido)-3-(4-fluoro-3-(trifluoromethoxy)phenyl)propanoic acid]	< 10 nM	< 3 nM
O=C(O)C[C@H](NC(=O)CNC(=O)c1cc(NC2=NCC(F)CN2)c2cn[nH]c2c1)c1cccc(C(F)(F)F)c1 (stereo partly drawn) [Example 35-(b), (3S)-3-(2-(4-((5-fluoro-1,4,5,6-tetrahydropyrimidin-2-yl)amino)-1H-indazole-6-carboxamido)acetamido)-3-(3-(trifluoromethyl)phenyl)propanoic acid]	10 to 50 nM	3 to 10 nM
O=C(O)C[C@H](NC(=O)CNC(=O)c1cc(NC2=NCC(F)CN2)c2cn[nH]c2c1)c1cccc(OC(F)(F)F)c1 (stereo partly drawn) [Example 36-(b), (3S)-3-(2-(4-((5-fluoro-1,4,5,6-tetrahydropyrimidin-2-yl)amino)-1H-indazole-6-carboxamido)acetamido)-3-(3-(trifluoromethoxy)phenyl)propanoic acid]	10 to 50 nM	3 to 10 nM
O=C(O)C[C@H](NC(=O)CNC(=O)c1cc(NC2=NCC(F)CN2)c2cn[nH]c2c1)c1cccc(OC(F)F)c1 (stereo partly drawn) [Example 37-(b), (3S)-3-(3-(difluoromethoxy)phenyl)-3-(2-(4-((5-fluoro-1,4,5,6-tetrahydropyrimidin-2-yl)amino)-1H-indazole-6-carboxamido)acetamido)propanoic acid]	< 10 nM	3 to 10 nM
O=C(O)C[C@H](NC(=O)CNC(=O)c1cc(NC2=NCC(F)CN2)c2cn[nH]c2c1)c1cccc(C(F)F)c1 (stereo partly drawn) [Example 38-(b), (3S)-3-(3-(difluoromethyl)phenyl)-3-(2-(4-((5-fluoro-1,4,5,6-tetrahydropyrimidin-2-yl)amino)-1H-indazole-6-carboxamido)acetamido)propanoic acid]	50 to 100 nM	< 3 nM
O=C(O)C[C@H](NC(=O)CNC(=O)c1cc(NC2=NCC(F)CN2)c2cn[nH]c2c1)c1cccc(C2CC2)c1 (stereo partly drawn) [Example 39-(b), (3S)-3-(3-cyclopropylphenyl)-3-(2-(4-((5-fluoro-1,4,5,6-tetrahydropyrimidin-2-yl)amino)-1H-indazole-6-carboxamido)acetamido)propanoic acid]	< 10 nM	< 3 nM
O=C(O)C[C@H](NC(=O)CNC(=O)c1cc(NC2=NCC(F)CN2)c2cn[nH]c2c1)c1cccc(OC2CC2)c1 (stereo partly drawn) [Example 40-(b), (3S)-3-(3-cyclopropoxyphenyl)-3-(2-(4-((5-fluoro-1,4,5,6-tetrahydropyrimidin-2-yl)amino)-1H-indazole-6-carboxamido)acetamido)propanoic acid]	10 to 50 nM	< 3 nM
O=C(O)C[C@H](NC(=O)CNC(=O)c1cc(NC2=NCC(F)CN2)c2cn[nH]c2c1)c1cccc(Cl)c1 (stereo partly drawn) [Example 41-(b), (3S)-3-(3-chlorophenyl)-3-(2-(4-((5-fluoro-1,4,5,6-tetrahydropyrimidin-2-yl)amino)-1H-indazole-6-carboxamido)acetamido)propanoic acid]	< 10 nM	3 to 10 nM
O=C(O)C[C@H](NC(=O)CNC(=O)c1cc(NC2=NCC(F)CN2)c2cn[nH]c2c1)c1cccc(Br)c1 (stereo partly drawn) [Example 42-(b), (3S)-3-(3-bromophenyl)-3-(2-(4-((5-fluoro-1,4,5,6-tetrahydropyrimidin-2-yl)amino)-1H-indazole-6-carboxamido)acetamido)propanoic acid]	10 to 50 nM	3 to 10 nM
O=C(O)C[C@H](NC(=O)CNC(=O)c1cc(NC2=NCC(F)CN2)c2cn[nH]c2c1)c1cccc(-n2cccn2)c1 (stereo partly drawn) [Example 43-(b), (3S)-3-(3-(1H-pyrazol-1-yl)phenyl)-3-(2-(4-((5-fluoro-1,4,5,6-tetrahydropyrimidin-2-yl)amino)-1H-indazole-6-carboxamido)acetamido)propanoic acid]	< 10 nM	3 to 10 nM
Cc1cc(C)n(-c2cccc([C@H](CC(=O)O)NC(=O)CNC(=O)c3cc(NC4=NCC(F)CN4)c4cn[nH]c4c3)c2)n1 (stereo partly drawn) [Example 44-(b), (3S)-3-(3-(3,5-dimethyl-1H-pyrazol-1-yl)phenyl)-3-(2-(4-((5-fluoro-1,4,5,6-tetrahydropyrimidin-2-yl)amino)-1H-indazole-6-carboxamido)acetamido)propanoic acid]	< 10 nM	< 3 nM
O=C(O)C[C@H](NC(=O)CNC(=O)c1cc(NC2=NCC(F)CN2)c2cn[nH]c2c1)c1cccc(N2CCOCC2)c1 (stereo partly drawn) [Example 45-(b), (3S)-3-(2-(4-((5-fluoro-1,4,5,6-tetrahydropyrimidin-2-yl)amino)-1H-indazole-6-carboxamido)acetamido)-3-(3-morpholinophenyl)propanoic acid]	10 to 50 nM	< 3 nM
O=C(O)C[C@H](NC(=O)CNC(=O)c1cc(NC2=NCC(F)CN2)c2cn[nH]c2c1)c1ccc(OC(F)F)cc1 (stereo partly drawn) [Example 46-(b), (3S)-3-(4-(difluoromethoxy)phenyl)-3-(2-(4-((5-fluoro-1,4,5,6-tetrahydropyrimidin-2-yl)amino)-1H-indazole-6-carboxamido)acetamido)propanoic acid]	50 to 100 nM	3 to 10 nM
O=C(O)C[C@H](NC(=O)CNC(=O)c1cc(NC2=NCC(F)CN2)c2cn[nH]c2c1)c1ccc(C(F)(F)F)cc1 (stereo partly drawn) [Example 47-(b), (3S)-3-(2-(4-((5-fluoro-1,4,5,6-tetrahydropyrimidin-2-yl)amino)-1H-indazole-6-carboxamido)acetamido)-3-(4-(trifluoromethyl)phenyl)propanoic acid]	10 to 50 nM	3 to 10 nM
